# PMC6332427, “Drug Discovery of Host CLK1 Inhibitors for Influenza Treatment” (Molecules, 2015)
# “And” between values parts separate entries of the source, which are not always exact repeats. Equal values may be shown once. Read-outs that look alike come from different tables or passages of the source.
# Assays:
# [1] = Cytotoxicity assay in MDCK cells (MTT, 72 h); conditions: dog
# recombinant human CLK1 = molecular target: T1, recombinant human CLK1 (Homo sapiens, UniProt P49759); assay: CLK1 inhibitory assay (Kinase-Glo luminescent kinase assay, MBP substrate); assay type: biochemical
# T1 construct: The primer of human full length CLK1 gene was as follows; made in house; host or cells: Sf9 insect cells (baculovirus, pFastBac1)
# T1 sequence (P49759 whole entry): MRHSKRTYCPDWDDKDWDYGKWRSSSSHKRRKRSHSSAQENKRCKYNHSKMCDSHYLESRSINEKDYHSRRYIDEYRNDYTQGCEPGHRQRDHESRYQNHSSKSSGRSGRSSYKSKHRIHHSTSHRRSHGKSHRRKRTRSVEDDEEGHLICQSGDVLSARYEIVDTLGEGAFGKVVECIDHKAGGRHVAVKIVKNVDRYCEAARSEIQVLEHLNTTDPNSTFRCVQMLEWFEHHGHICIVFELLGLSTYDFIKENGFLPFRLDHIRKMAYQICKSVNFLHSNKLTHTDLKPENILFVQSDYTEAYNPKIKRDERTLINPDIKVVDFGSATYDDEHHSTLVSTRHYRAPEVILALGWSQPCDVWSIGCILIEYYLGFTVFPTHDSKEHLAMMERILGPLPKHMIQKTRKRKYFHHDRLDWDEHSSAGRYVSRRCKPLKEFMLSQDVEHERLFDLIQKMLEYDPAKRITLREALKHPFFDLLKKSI
# Experimental: The optimal conditions were dependent on the largest change in luminescence when comparing kinase reaction wells with control wells.
# The kinase assay in this study utilized appropriate concentration of recombinant purified protein CLK1 in the presence of MBP as the substrate, MgCl2, MnCl2, ATP in kinase buffer (10 mM Tris, 1 mM EGTA, 100 μM sodium orthovanadate, 10 μM p-nitrophenyl phosphate (PNP), pH7.4) in a reaction volume of 20 μL. The reaction system were incubated at 25 °C for appropriate time. The Kinase-Glo® Luminescent Kinase Assay Platform was used to measure kinase activity by quantitating the amount of ATP, the signals of which were recorded using PerkinElmer’s EnSpire Multilabel Plate Reader. All the above components were added to the plate by automatic dispenser (EDR-384S, BioTec, Tokyo, Japan). A series of parameters containing the amount of kinase (1.16–298 ng/mL), MBP (3.125–150 μg/mL), ATP (0.1–100 μM), Mg^2+ (0.01–100 mM), Mn^2+ (0.5–20 mM), the percentage of DMSO (0.03%–10%), reaction time and temperature were optimized respectively in order to get best performance. Z′ factor values was calculated as described.
# The inhibition percentage of the compounds against CLK1 were calculated according to the formula: (1) inhibition%=[(RLUsample−RLUpositive)/(RLUnegative−RLUpositive)]×100% where the RLUsample, RLUpositive, RLUnegative are the measured RLU values with treatment of test compounds, the wells free of test compounds, and that of without kinase, respectively.
# [2] = test system: influenza virus A/PR/8/34 (H1N1); assay: organism not typed; conditions: MDCK
# MDCK cells [3] = conditions: dog, 72 h
# CLK1 = conditions: cited from earlier work
# [4] = test system: influenza virus A/PR/8/34 (H1N1)
# MDCK cells [5] = assay: Cytotoxicity assay in MDCK cells (MTT, 72 h); conditions: MDCK cells; for CC50 (50% cytotoxic concentration) / CC0 (maximal non-cytotoxic concentration): 72 h, MTT; for CC0 (maximal non-cytotoxic concentration): more than 90% cells viable
# in vitro = conditions: dog
# [6] = test system: influenza virus A/PR/8/34 (H1N1); assay: in vitro; conditions: for selectivity ratio at 24 h: MDCK, H1N1
# [7] = test system: influenza virus A/PR/8/34 (H1N1); assay: microbe, parasite or virus in culture; conditions: read-out: EC50s in time-of-addition assays
# [8] = 24 h, read-out: Simultaneous Treatment Assay EC50
# [9] = read-out: Post-Treatment Assay EC50
# [10] = read-out: Pre-Treatment Assay EC50
# [11] = Kinase-Glo assay, read-out: IC50 (converted)
# [12] = Post-Treatment Assay SI (selective index, CC50/EC50), post-treatment
# [13] = Pre-Treatment Assay SI (selective index, CC50/EC50), pre-treatment
# [14] = Simultaneous Treatment Assay SI (selective index, CC50/EC50), simultaneous treatment
Compound,"IC50 (recombinant human CLK1; IC50, Kinase-Glo assay)","EC50 [2, 8] [µg/mL]","EC50 [2, 9] [µg/mL]","EC50 [2, 10] [µg/mL]",CC0 (maximal non-cytotoxic concentration) (MDCK cells [3]) [µg/mL],CC0 (maximal non-cytotoxic concentration) (MDCK cells [5]) [µg/mL],CC50 at 72 h (in vitro) [µg/mL],"selectivity ratio at 24 h [6, 12]","selectivity ratio at 24 h [6, 13]",other results
COC(=O)c1cc(O)c(O)c(O)c1 [Methyl gallate],< 272 µM,> 30,> 30,> 30,30,,,,,CC50 at 72 h [1]: 69.5 µg/mL
c1csc(CNc2ncnc3ccc(-c4ccc5c(c4)OCO5)cc23)c1 [NCGC00010037],,,,,,,,,,IC50 (CLK1): 0.037 µM
Hispidulin [J20353],,,,,,30,,,,Post-Treatment Assay EC50 [4]: >30 µg/mL; Pre-Treatment Assay EC50 [4]: 18.89 ± 5.1 µg/mL; Simultaneous Treatment Assay EC50 [4]: 5.26 ± 2.48 µg/mL; CC50 (50% cytotoxic concentration) (MDCK cells [5]): 60.35 µg/mL; IC50 (recombinant human CLK1; Kinase-Glo assay): lower than 50 μg/mL
C/C=C/C(=O)c1c(O)c2c(c3c(-c4ccccc4)cc(=O)oc13)OC(C)(C)C=C2 [J10857],,16.3 ± 2.29,14.7 ± 5.25,18.4 ± 13,30,,77.7,5.3,4.22,"IC50 (recombinant human CLK1; [11]): < 129 µM; selectivity ratio at 24 h [6, 14]: 4.78"
"O=C(O[C@@H]1O[C@@H]2COC(=O)c3cc(O)c(O)c(O)c3-c3c(cc(O)c(O)c3O)C(=O)O[C@H]([C@H]1O)[C@@H]2O)c1cc(O)c(O)c(O)c1 [J12098, Corilagin]",< 78.8 µM and 0.599 µM,2 ± 2.22,5.91 ± 1.44,3.99 ± 3.72,30,,154,26,38.5,"EC50 ([7]; MDCK): < 20 µg/mL; selectivity ratio at 24 h [6, 14]: 76.8"
"O=c1cc(-c2ccccc2)oc2c(O)c(O)cc(O)c12 [J21548, Norwogonin]",< 185 µM,> 30,> 30,> 30,30,,91.8,,,
"CCCOC(=O)c1cc(O)c(O)c(O)c1 [J25986, Propyl gallate]",,12.9 ± 8.06,3.42 ± 0.2,15.9 ± 6.94,,30,,53.2,11.4,"CC50 at 72 h ([1]; MDCK cells): 182 µg/mL; IC50 (recombinant human CLK1; [11]): < 236 µM; selectivity ratio at 24 h [6, 14]: 14.1"
"O=C(Oc1cc(O)c2c(c1)O[C@H](c1cc(O)c(O)c(O)c1)[C@@H](O)C2)c1cc(O)c(O)c(O)c1 [J10688, Clypearin]",,1.2 ± 0.28,18.1 ± 3.02,0.75 ± 0.13,100,,> 200,> 11.1,> 267,"IC50 (recombinant human CLK1; [11]): < 109 µM and 2.62 µM; EC50 ([7]; unidentified influenza virus, H1N1|PR/8, MDCK): < 20 µg/mL; selectivity ratio at 24 h [6, 14]: > 167"
"O=c1cc(-c2ccc(O)c(O)c2)oc2cc(O)cc(O)c12 [J20725, Luteolin]",,> 10,5.74 ± 0.54,> 10,,10,,4.33,,CC50 at 72 h ([1]; MDCK cells): 24.9 µg/mL; concentration above which toxic effects occur (MDCK cells [5]): above 10 μg/mL; IC50 (recombinant human CLK1; [11]): < 175 µM
"NC(=O)c1ncn([C@@H]2O[C@H](CO)[C@@H](O)[C@H]2O)n1 [Ribavirin, reference compound]",,10.3 ± 2.38,13.8 ± 3.47,4.36 ± 0.99,,,,,,CC50 at 72 h [1]: > 200 µg/mL
"O=c1c(O)c(-c2ccc(O)cc2)oc2cc(O)cc(O)c12 [J10610, Kaempferol]",,12.3 ± 5.89,23.3 ± 1.08,5.16 ± 2.4,,30,,,,"CC50 at 72 h ([1]; MDCK cells): 68.5 µg/mL; IC50 (recombinant human CLK1; Figure 6, Kinase-Glo assay, read-out: IC50 (converted)): 6.01 µM; IC50 (recombinant human CLK1; [11]): < 175 µM; selectivity ratio ([6]; Post-Treatment Assay SI (selective index, CC50/EC50)): 2.94; selectivity ratio ([6]; Pre-Treatment Assay SI (selective index, CC50/EC50)): 13.3; selectivity ratio ([6]; Simultaneous Treatment Assay SI (selective index, CC50/EC50)): 5.55"
"COc1cc(/C=C/c2cc(O)cc(O)c2)ccc1O [J14528, Isorhapontigenin]",< 194 µM,> 30,> 30,5.98 ± 2.3,30,,83.4,,13.9,
"O=C(O[C@@H]1Cc2c(O)cc(O)cc2O[C@@H]1c1cc(O)c(O)c(O)c1)c1cc(O)c(O)c(O)c1 [J14080, Epigallocatechin gallate]",< 109 µM,14.9 ± 1.81,> 30,10.2 ± 6.22,,30,,,,CC50 at 72 h [1]: 71.1 µg/mL
"Oc1cc(O)cc(/C=C/c2ccccc2)c1 [J14848, Pinosylvin]",< 236 µM and 395 µM,5.28 ± 2.45,6.65 ± 4.3,7.54 ± 5.48,10,,18.3,3.23,2.42,"concentration above which toxic effects occur (MDCK cells [3]): above 10 μg/mL; selectivity ratio at 24 h [6, 14]: 3.46"
Cc1c([N+](=O)[O-])c(O)c([N+](=O)[O-])c2oc(=O)c(C(=O)Nc3cccc(C(=O)O)c3)cc12 [J11534],< 116 µM,> 30,> 30,> 30,,30,,,,CC50 at 72 h [1]: 175 µg/mL
Chebulanin [J12133],,,,,,30,,,,"Post-Treatment Assay EC50 ([4]; H1N1 (MOI 0.01) incubated with MDCK cells 2 h, then compound, 24 h, mean ± SD): 21.11 ± 11.15 µg/mL; Pre-Treatment Assay EC50 ([4]; H1N1 (MOI 0.01) pre-incubated with compound 2 h at 37 °C before addition to MDCK cells, 24 h, mean ± SD): 15.29 ± 10.35 µg/mL; Simultaneous Treatment Assay EC50 ([4]; compound added along with H1N1 (MOI 0.01) to MDCK cells, 24 h, mean ± SD): 9.84 ± 0.44 µg/mL; Post-Treatment Assay SI (selective index, CC50/EC50) ([4]; post-treatment, MDCK, H1N1): 4.28; Pre-Treatment Assay SI (selective index, CC50/EC50) ([4]; pre-treatment, MDCK, H1N1): 5.90; Simultaneous Treatment Assay SI (selective index, CC50/EC50) ([4]; simultaneous treatment, MDCK, H1N1): 9.17; CC50 (50% cytotoxic concentration) (MDCK cells [5]): 90.27 µg/mL; IC50 (recombinant human CLK1; Kinase-Glo assay): lower than 50 μg/mL"
O=c1c(-c2ccc(O)cc2)coc2cc(O)cc(O)c12 [Genistein],< 185 µM,> 30,> 30,> 30,,30,,,,CC50 at 72 h [1]: 75.6 µg/mL
